Like-named read-outs stand apart in the source and are kept apart here.
Legend:
α7-nAChR [1] = target: T1, α7-nAChR (Mus musculus, UniProt P49582); test: Blocking of [18F]7a with non-α7-nAChR CNS drugs in CD-1 mice; type: in vivo; settings: 2 mg/kg, s.c., 10 min before radiotracer, 90 min after tracer
[2] = type: in vivo; settings: mice, i.v.
α7-nAChR [3] = settings: read-out: α7-nAChR Ki, cited from earlier work
α7-nAChR [4] = target: T1, α7-nAChR; parameters: species or system CD-1 mice; settings: in vivo
α7-nAChR [5] = target: T2, α7-nAChR (Rattus norvegicus, UniProt Q05941); settings: read-out: KD of radiotracer at α7-nAChR; cited from earlier work
α7-nAChR [6] = target: T2, α7-nAChR; test: biochemical; type: binding; settings: two independent assays, each in duplicate
α2β2-nAChR = α2β2-nAChR (Rattus norvegicus, UniProt P12389+P12390); test: Heteromeric nAChR binding, transfected HEK293 membranes, [3H]epibatidine
α7-nAChR [7] = target: T1, α7-nAChR; settings: in vivo

T1 sequence (P49582 23-502): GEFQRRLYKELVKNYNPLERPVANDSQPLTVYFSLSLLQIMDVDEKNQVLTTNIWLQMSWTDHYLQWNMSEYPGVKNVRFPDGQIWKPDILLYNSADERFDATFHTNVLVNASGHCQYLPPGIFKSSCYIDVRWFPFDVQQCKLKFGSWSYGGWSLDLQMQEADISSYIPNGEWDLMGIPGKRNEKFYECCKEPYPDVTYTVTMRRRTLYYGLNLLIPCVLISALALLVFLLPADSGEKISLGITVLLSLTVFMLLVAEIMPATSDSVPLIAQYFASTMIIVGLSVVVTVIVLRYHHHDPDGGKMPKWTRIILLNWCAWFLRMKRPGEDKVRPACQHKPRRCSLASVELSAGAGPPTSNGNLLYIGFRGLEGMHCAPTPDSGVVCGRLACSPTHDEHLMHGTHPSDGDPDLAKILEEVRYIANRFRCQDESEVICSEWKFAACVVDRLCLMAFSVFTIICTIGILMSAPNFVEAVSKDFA
α2β2-nAChR, sequence (P12389 28-511): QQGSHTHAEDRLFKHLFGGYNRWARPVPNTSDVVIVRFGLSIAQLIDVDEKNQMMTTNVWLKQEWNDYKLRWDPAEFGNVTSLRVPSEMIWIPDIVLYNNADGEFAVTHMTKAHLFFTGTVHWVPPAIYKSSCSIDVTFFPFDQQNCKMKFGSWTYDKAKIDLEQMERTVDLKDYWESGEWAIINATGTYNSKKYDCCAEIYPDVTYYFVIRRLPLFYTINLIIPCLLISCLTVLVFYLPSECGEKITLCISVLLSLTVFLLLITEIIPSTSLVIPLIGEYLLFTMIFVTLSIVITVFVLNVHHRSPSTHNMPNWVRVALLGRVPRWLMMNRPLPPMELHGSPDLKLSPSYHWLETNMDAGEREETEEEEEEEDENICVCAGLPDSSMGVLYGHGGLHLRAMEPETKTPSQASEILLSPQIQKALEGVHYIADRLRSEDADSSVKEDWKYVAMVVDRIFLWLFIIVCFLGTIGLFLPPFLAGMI
α2β2-nAChR, sequence (P12390 25-500): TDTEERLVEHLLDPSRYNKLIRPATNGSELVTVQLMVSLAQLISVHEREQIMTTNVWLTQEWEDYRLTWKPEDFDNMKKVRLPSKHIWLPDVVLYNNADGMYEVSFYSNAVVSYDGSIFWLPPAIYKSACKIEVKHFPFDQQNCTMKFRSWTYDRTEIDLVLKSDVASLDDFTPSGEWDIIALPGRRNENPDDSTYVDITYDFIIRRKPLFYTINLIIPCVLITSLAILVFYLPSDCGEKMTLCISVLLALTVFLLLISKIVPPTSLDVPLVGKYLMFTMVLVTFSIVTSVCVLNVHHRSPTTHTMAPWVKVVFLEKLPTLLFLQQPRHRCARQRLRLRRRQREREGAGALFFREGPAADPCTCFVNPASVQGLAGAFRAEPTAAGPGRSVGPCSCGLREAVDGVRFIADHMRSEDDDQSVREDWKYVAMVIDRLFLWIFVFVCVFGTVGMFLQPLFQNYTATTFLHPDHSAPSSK
T2 sequence (Q05941 23-502): as the sequence (P49582 23-502) above, with T402A counted along it

Cc1nccn1CC1CCc2c(c3ccccc3n2C)C1=O (centres unmarked) [ondansetron, Ondansetron]
effect on accumulation of [18F]7a in mouse brain regions (α7-nAChR [1]): absence of blockade

O=S1(=O)c2ccc(F)cc2-c2ccc(N3CCN4CCC3CC4)cc21 [7c, 7-(1,4-Diazabicyclo[3.2.2]nonan-4-yl)-2-fluorodibenzo[b,d]thiophene 5,5-dioxide]
behavioral or locomotor activity changes ([2]; 0.2 mg/kg): Neither behavioral nor locomotor activity changes were observed

O=S1(=O)c2ccccc2-c2ccc(N3CCN4CCC3CC4)cc21 [compound 5, 3-(1,4-diazabicyclo[3.2.2]nonan-4-yl)dibenzo[b,d]thiophene 5,5-dioxide]
Ki (α7-nAChR [3]): 0.023 nM
blockade of [18F]7c accumulation in mouse brain (α7-nAChR [4]): Dose dependent blockade

[^125I]α-Bungarotoxin
Kd (α7-nAChR [5]): 0.7 nM

O=S1(=O)c2cc(N3CCN4CCC3CC4)ccc2-c2cccc(I)c21 [compound 14, 3-(1,4-Diazabicyclo[3.2.2]nonan-4-yl)-6-iododibenzo[b,d]thiophene 5,5-dioxide]
Ki (α7-nAChR [6]): 1.93 nM

O=S1(=O)c2ccccc2-c2c(N3CCN4CCC3CC4)ccc(F)c21 [7e, 1-(1,4-Diazabicyclo[3.2.2]nonan-4-yl)-4-fluorodibenzo[b,d]thiophene 5,5-dioxide]
Ki (α2β2-nAChR): > 10000 nM

CN1CCC[C@H]1c1cccnc1 [nicotine]
blockade of [18F]7a accumulation in mouse brain (α7-nAChR [7]): significant blockade in all regions, except the nAChR-poor cerebellum

O=S1(=O)c2cc(N3CCN4CCC3CC4)ccc2-c2cccc(F)c21 [7a, 3-(1,4-Diazabicyclo[3.2.2]nonan-4-yl)-6-fluorodibenzo[b,d]thiophene 5,5-dioxide]
Ki (α2β2-nAChR; read-out: α2β2 Ki, stably transfected HEK293 cells, [3H]epibatidine 0.5 nM): > 10000 nM
behavioral or locomotor activity changes ([2]; 0.3 mg/kg): Neither behavioral nor locomotor activity changes were observed

O=c1cccc2n1C[C@@H]1CNC[C@H]2C1 [cytisine]
blockade of [18F]7a accumulation in mouse brain (α7-nAChR [7]): insignificant reduction of radioactivity accumulation in all regions studied

O=C(Oc1ccc(Br)cc1)N1CCN2CCC1CC2 [compound 1]
effect on accumulation of [18F]7a in mouse brain regions (α7-nAChR [1]): reduced accumulation of radioactivity
Ki (α7-nAChR [3]; ref [58]): 22 nM
blockade of [18F]7a binding in mouse brain (α7-nAChR [4]): dose dependent blockade in all regions studied

— article PMC3866913 (Journal of medicinal chemistry, 2013)
